Source: patent publication US20020051978A1, “Methods and compositions for the identification, assessment, prevention and therapy of human cancers” (priority 2000, published 2002)
Where “and” joins values, the source holds several entries; their conditions need not be identical. Equal entries are not always repeated. Where two headings read alike, the source gives them in different places.

What was measured:
[1] = tested on: 60 cancer cell lines (NCI 60 cancer cell line series); settings: cited from earlier work
[2] = tested on: 60 cancer cell lines (NCI 60 cancer cell line series); test: NCI-DTP in vitro cancer screen, sulforhodamine B (SRB) growth inhibition, 48 hour exposure; assay type: cell-based, human
How it was run: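 Sixty NCI-DTP cancer lines plated at line-specific densities, dosed on day 1 in duplicate with 5 concentrations at ten-fold intervals. After 48 h exposure, cell mass read by SRB staining; GI50 (50% growth inhibition) taken from dose-response curves and expressed as -log GI50.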

OC[C@H]1O[C@@H](n2cnc3c2N=CNC[C@H]3O)C[C@@H]1O [2′-deoxycoformycin]
8: 3 # of High [2]
3.4: -Log (GI50) ([1]; Colon SW-620 (CL4009)) | -Log (GI50) ([1]; Leukemia CCRF-CEM(I) (CL7003)) | -Log (GI50) ([1]; Leukemia HL-60(I) (CL7008)) | -Log (GI50) ([1]; Leukemia MOLT-4 (CL7006)) | -Log (GI50) ([1]; Leukemia SR CL7019) | -Log (GI50) ([1]; Melanoma M14 (CL10014))
1: sensitivity class Prostate PC-3(I) CL11001 [2] | sensitivity class Renal TK10 CL9024 [2] | sensitivity class Ovarian OVCAR-5 CL6003 ([2]; cell line Ovarian OVCAR-5, CL6003)
3.5: -Log (GI50) [1]
9: 1 # of Low [2]
3: sensitivity class Renal CAKI-1 CL9015 [2] | sensitivity class Renal RXF-393 CL9016 [2] | classification of cell line as Low(1), Medium(2) or High(3) sensitivity to compound ([2]; Leukemia SR CL7019) | sensitivity class NSCLC NCI-H522 CL1003 ([2]; cell line NSCLC NCI-H522, CL1003) | sensitivity class Prostate DU-145 CL11003 ([2]; cell line Prostate DU-145, CL11003)
2: sensitivity class Renal 786-O CL9018 [2] | sensitivity class Renal A498 CL9013 [2] | sensitivity class Renal ACHN CL9023 [2] | sensitivity class Renal SN12C CL9008 [2] | sensitivity class Renal UO-31 CL9004 [2] | classification of cell line as Low(1), Medium(2) or High(3) sensitivity to compound ([2]; Colon SW-620 (CL4009)) | classification of cell line as Low(1), Medium(2) or High(3) sensitivity to compound ([2]; Leukemia CCRF-CEM(I) (CL7003)) | classification of cell line as Low(1), Medium(2) or High(3) sensitivity to compound ([2]; Leukemia HL-60(I) (CL7008)) | classification of cell line as Low(1), Medium(2) or High(3) sensitivity to compound ([2]; Leukemia K562(I) CL7005) | classification of cell line as Low(1), Medium(2) or High(3) sensitivity to compound ([2]; Leukemia MOLT-4 (CL7006)) | classification of cell line as Low(1), Medium(2) or High(3) sensitivity to compound ([2]; Leukemia RPMI-8226(I) (CL7010)) | classification of cell line as Low(1), Medium(2) or High(3) sensitivity to compound ([2]; Melanoma LOX IMVI CL10001) | classification of cell line as Low(1), Medium(2) or High(3) sensitivity to compound ([2]; Melanoma M14 (CL10014)) | classification of cell line as Low(1), Medium(2) or High(3) sensitivity to compound ([2]; Melanoma MALME-3M CL10002) | sensitivity class NSCLC NCI-H23(I) CL1001 ([2]; cell line NSCLC NCI-H23(I), CL1001) | sensitivity class NSCLC NCI-H332M CL1017 ([2]; cell line NSCLC NCI-H332M, CL1017) | sensitivity class NSCLC NCI-H460 CL1021 ([2]; cell line NSCLC NCI-H460, CL1021) | sensitivity class Ovarian IGROV1 CL6010 ([2]; cell line Ovarian IGROV1, CL6010) | sensitivity class Ovarian OVCAR-3 CL6001 ([2]; cell line Ovarian OVCAR-3, CL6001) | sensitivity class Ovarian OVCAR-4 CL6002 ([2]; cell line Ovarian OVCAR-4, CL6002) | sensitivity class Ovarian OVCAR-8 CL6005 ([2]; cell line Ovarian OVCAR-8, CL6005) | sensitivity class Ovarian SK-OV-3 CL6011 ([2]; cell line Ovarian SK-OV-3, CL6011)
3.3: -Log (GI50) ([1]; Leukemia K562(I) CL7005) | -Log (GI50) ([1]; Leukemia RPMI-8226(I) (CL7010)) | -Log (GI50) ([1]; Melanoma LOX IMVI CL10001) | -Log (GI50) ([1]; Melanoma MALME-3M CL10002)
43: 2 # of Medium [2]
2 and 1 and 3: classification of cell line as Low(1), Medium(2) or High(3) sensitivity to compound [2]
3 and 2: sensitivity class of the cell line to the compound (1 Low, 2 Medium, 3 High) [2]

O=C(O)CCCc1ccc(N(CCCl)CCCl)cc1 [Chlorambucil]
5.2: -Log (GI50) ([1]; Leukemia CCRF-CEM(I) (CL7003)) | -Log (GI50) ([1]; Leukemia SR CL7019)
4.1: -Log (GI50) ([1]; Colon SW-620 (CL4009)) | -Log (GI50) ([1]; Leukemia RPMI-8226(I) (CL7010)) | -Log (GI50) ([1]; Melanoma SK-MEL-5 (CL10007)) | -Log (GI50) ([1]; Melanoma UACC-257 (CL10021)) | -Log (GI50) ([1]; NSCLC NCI-H226 CL1013) | -Log (GI50) ([1]; Ovarian OVCAR-8 CL6005)
4.3: -Log (GI50) ([1]; Breast MCF7/ADRr (CL5002)) | -Log (GI50) ([1]; Breast T-47D (CL5014)) | -Log (GI50) ([1]; CNS SNB-75(I) CL12005)
4.9: -Log (GI50) ([1]; NSCLC NCI-H460 CL1021)
4.2: -Log (GI50) ([1]; Melanoma M14 (CL10014)) | -Log (GI50) ([1]; Melanoma MALME-3M CL10002) | -Log (GI50) ([1]; NSCLC A549/ATCC (CL1004)) | -Log (GI50) ([1]; NSCLC HOP-92 (CL1029)) | -Log (GI50) ([1]; Prostate DU-145 CL11003) | -Log (GI50) ([1]; Renal UO-31 CL9004)
5.1: -Log (GI50) ([1]; Leukemia HL-60(I) (CL7008))
4.8: -Log (GI50) ([1]; Renal ACHN CL9023) | -Log (GI50) ([1]; Renal CAKI-1 CL9015)
4.6: -Log (GI50) ([1]; CNS SF-539 CL12016) | -Log (GI50) ([1]; NCSLC NCI-H522 CL1003) | -Log (GI50) ([1]; NSCLC NCI-H23(I) CL1001) | -Log (GI50) ([1]; Renal RXF-393 CL9016)
5.3: -Log (GI50) ([1]; Leukemia MOLT-4 (CL7006))
3.8: -Log (GI50) ([1]; Breast MDA-MB-231 CL5005) | -Log (GI50) ([1]; Colon KM12 (CL4017)) | -Log (GI50) ([1]; Melanoma SK-MEL-2 (CL10005)) | -Log (GI50) ([1]; NSCLC EKVX (CL1008)) | -Log (GI50) ([1]; Renal TK10 CL9024)
4.0: -Log (GI50) ([1]; Breast BT-549 (CL5013)) | -Log (GI50) ([1]; CNS SNB-19 (CL12002)) | -Log (GI50) ([1]; Colon HCC-2998 (CL4002)) | -Log (GI50) ([1]; Colon HCT-15 CL4015) | -Log (GI50) ([1]; Colon HCT-116 (CL4003)) | -Log (GI50) ([1]; Melanoma SK-MEL-28 (CL10008)) | -Log (GI50) ([1]; Ovarian OVCAR-3 CL6001) | -Log (GI50) ([1]; Ovarian OVCAR-5 CL6003) | -Log (GI50) ([1]; Ovarian SK-OV-3 CL6011) | -Log (GI50) ([1]; Prostate PC-3(I) CL11001)
4.4: -Log (GI50) ([1]; CNS SF-295 CL12015) | -Log (GI50) ([1]; CNS U251(I) CL12009) | -Log (GI50) ([1]; Melanoma LOX IMVI CL10001) | -Log (GI50) ([1]; NSCLC HOP-62 (CL1026))
4.5: -Log (GI50) ([1]; Breast MCF7(I) (CL5001)) | -Log (GI50) ([1]; CNS SF-268 CL12014) | -Log (GI50) ([1]; Renal 786-O CL9018) | -Log (GI50) ([1]; Renal SN12C CL9008)
3.9: -Log (GI50) ([1]; Breast MDA-MB-435 (CL5011)) | -Log (GI50) ([1]; Breast MDA-N CL5012) | -Log (GI50) ([1]; Colon COLO-250 CL4010) | -Log (GI50) ([1]; Colon HT29(I) CL4001) | -Log (GI50) ([1]; Leukemia K562(I) CL7005) | -Log (GI50) ([1]; Ovarian IGROV1 CL6010) | -Log (GI50) ([1]; Ovarian OVCAR-4 CL6002) | -Log (GI50) ([1]; Renal A498 CL9013)
4.7: -Log (GI50) ([1]; Melanoma UACC-62 (CL10020))
3.7: -Log (GI50) ([1]; Breast HS-578T CL5006) | -Log (GI50) ([1]; NSCLC NCI-H332M CL1017)
